We go through three compounds from patent US20080102121A1 (Elan Pharma International Limited, priority 1998, published 2008).

A word on the bioavailability: it is dose-corrected exposure relative to a reference, in per cent. The term Cmax denotes the peak of the concentration-time curve. As usually defined, the Tmax is the time at which the peak concentration occurs.

Counter-ions that a name gives are not always drawn.

The conditions of series [1]: cited from earlier work.
For series [2] the following is noted: in vivo; cited from earlier work.
The conditions of series [3]: in vivo; cited from earlier work. This is another data set of the same source.
A short description of series [4]: Hydrocodone simulations (one-compartment model). The following applies: estimated from non-compartmental parameters.
Protocol: Studies of hydrocodone formulations of the present invention were conducted to simulate the profiles associated with twice-daily administration hydrocodone for both single dose and steady state. […] Non-compartmental parameters were used to find estimates of the unit input response and a one-compartment model was assumed for all simulations.
For the absorption rate constant k01, several profiles were simulated using different estimates of k01.
Options 1 and 2 assumed a first order release and option 3 a zero-order release.
The conditions of series [5]: 10 mg oral dose, five adult males; cited from earlier work.

For “4-hydroxy-2-methyl-N-(5-methyl-2-thiazolyl)-2-H-1,2-benzothiazine-3-carboxamide 1,1-dioxide [Meloxicam]”, in series [1] (fasted steady state conditions, post-dose), the “time of second meloxicam concentration peak” value is “twelve to fourteen”. In series [1] (single 30 mg oral dose compared to 30 mg intravenous bolus injection), the bioavailability was 89%.
With `CC(=O)Nc1ccc(O)cc1` [acetaminophen], the “doses reported as fatal” value in series [2] was 15,000-20,0000 milligrams a day.
On to `COc1ccc2c3c1OC1C(=O)CCC4C(C2)N(C)CC[C@]314` (stereo partly drawn) [Hydrocodone, 4,5a-Epoxy-3-methoxy-1 7-methylmorphinan-6-one tartrate (1:1) hydrate (2:5)], for which the half life in series [3] is 4 to 8 h. Further, in series [4], the K10 was 0.18 and the V/f is on record as 334.29 L. In addition, in series [5], the Cmax was 23.6 ± 5.2 ng/mL, the Thalf was 3.8 ± 0.3 h and the Tmax was 1.3 ± 0.3 h.
